Test results taken from ChEMBL document CHEMBL1255183, “Role of the phenolic hydroxyl group in the biological activities of simplified analogue of aplysiatoxin with antiproliferative activity” (Bioorg Med Chem Lett, 2010).

Assays:
[1] = Cytotoxicity against human Raji cells assessed as viability at 1 uM in presence of TPA; type: cell-based; details: read-out: Activity
[2] = Cytotoxicity against human MKN1 cells; type: functional; details: MKN-1
[3] = target: T1, Protein kinase C delta type (Homo sapiens, UniProt Q05655); assay: Inhibition of [3H]PDBu binding to PKC delta C1A peptide
OVCAR-5 = assay: Cytotoxicity against human OVCAR5 cells; type: functional
Raji [4] = assay: Inhibition of TPA-induced EBA-early antigen production in human Raji cells at 10^-7 M; type: cell-based; set-up: scale not given: the % may be the effect or the level left; details: human gammaherpesvirus 4
OVCAR-3 = assay: Cytotoxicity against human OVCAR-3 cells; type: functional
Raji [5] = assay: Induction of EBA-early antigen production in human Raji cells at 10^-7 M; type: cell-based; details: human gammaherpesvirus 4
NCI-H23 = assay: Cytotoxicity against human NCI-H23 cells; type: functional
MKN-28 = assay: Cytotoxicity against human MKN28 cells; type: functional
[6] = Cytotoxicity against human BSY1 cells; type: functional; details: BSY-1
MKN-45 = assay: Cytotoxicity against human MKN45 cells; type: functional
SF-295 = assay: Cytotoxicity against human SF295 cells; type: functional
DU-145 = assay: Cytotoxicity against human DU145 cells; type: functional
OVCAR-8 = assay: Cytotoxicity against human OVCAR8 cells; type: functional
HCT-15 = assay: Cytotoxicity against human HCT15 cells; type: functional
St-4 = assay: Cytotoxicity against human St-4 cells; type: functional
DMS-273 = assay: Cytotoxicity against human DMS273 cells; type: functional
[7] = Cytotoxicity against human RXF631L cells; type: functional; details: RXF 631
NCI-H460 = assay: Cytotoxicity against human NCI-H460 cells; type: functional
[8] = Cytotoxicity against human HBC4 cells; type: functional
[9] = target: T2, Protein kinase C epsilon type (Homo sapiens, UniProt Q02156); assay: Inhibition of [3H]PDBu binding to PKCepsilon C1B peptide
T2 sequence (Q02156 whole entry): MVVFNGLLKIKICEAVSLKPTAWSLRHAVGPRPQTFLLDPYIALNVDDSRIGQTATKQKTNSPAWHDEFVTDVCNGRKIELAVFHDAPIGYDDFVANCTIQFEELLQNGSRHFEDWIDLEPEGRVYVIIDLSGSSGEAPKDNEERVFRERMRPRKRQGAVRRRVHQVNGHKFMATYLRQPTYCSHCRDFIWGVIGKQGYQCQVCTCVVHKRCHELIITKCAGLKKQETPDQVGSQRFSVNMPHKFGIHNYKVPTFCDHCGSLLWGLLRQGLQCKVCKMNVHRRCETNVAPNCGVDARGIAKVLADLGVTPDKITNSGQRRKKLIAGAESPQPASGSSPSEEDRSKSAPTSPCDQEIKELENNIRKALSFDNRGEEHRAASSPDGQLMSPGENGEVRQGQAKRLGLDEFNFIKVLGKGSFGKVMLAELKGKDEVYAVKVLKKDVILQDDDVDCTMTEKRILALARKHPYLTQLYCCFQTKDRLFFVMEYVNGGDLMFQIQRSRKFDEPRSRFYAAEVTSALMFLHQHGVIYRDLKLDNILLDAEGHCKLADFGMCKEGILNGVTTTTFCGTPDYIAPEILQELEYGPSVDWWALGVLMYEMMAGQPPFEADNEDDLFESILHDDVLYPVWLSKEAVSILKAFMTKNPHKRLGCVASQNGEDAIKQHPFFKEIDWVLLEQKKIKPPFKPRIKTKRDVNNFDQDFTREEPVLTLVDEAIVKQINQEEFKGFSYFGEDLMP

SF-539 = assay: Cytotoxicity against human SF539 cells; type: functional
[10] = target: Protein kinase C gamma type (Homo sapiens, UniProt P05129); assay: Inhibition of [3H]PDBu binding to PKC gamma C1A peptide
MDA-MB-231 = assay: Cytotoxicity against human MDA-MB-231 cells; type: functional
Raji [11] = assay: Inhibition of TPA-induced EBA-early antigen production in human Raji cells at 1 uM; type: cell-based; set-up: scale not given: the % may be the effect or the level left; details: human gammaherpesvirus 4
[12] = Cytotoxicity against human Raji cells assessed as viability at 10^-7 M in presence of TPA; type: cell-based; details: read-out: Activity
[13] = target: Protein kinase C eta type (Homo sapiens, UniProt P24723); assay: Inhibition of [3H]PDBu binding to PKCeta C1B peptide
PC-3 = assay: Cytotoxicity against human PC3 cells; type: functional
ACHN = assay: Cytotoxicity against human ACHN cells; type: functional
SF-268 = assay: Cytotoxicity against human SF268 cells; type: functional
[14] = target: Protein kinase C beta type (Homo sapiens, UniProt P05771); assay: Inhibition of [3H]PDBu binding to PKC beta C1A peptide
DMS-114 = assay: Cytotoxicity against human DMS114 cells; type: functional
MKN-7 = assay: Cytotoxicity against human MKN7 cells; type: functional
NCI-H226 = assay: Cytotoxicity against human NCI-H226 cells; type: functional
OVCAR-4 = assay: Cytotoxicity against human OVCAR4 cells; type: functional
SNB-78 = assay: Cytotoxicity against human SNB78 cells; type: functional
[15] = target: T1, Protein kinase C delta type; assay: Inhibition of [3H]PDBu binding to PKC delta C1B peptide
LOX IMVI = assay: Cytotoxicity against human LOXIMVI cells; type: functional
[16] = Cytotoxicity against human Raji cells assessed as viability at 10^-7 M; type: cell-based; details: read-out: Activity
NCI-H522 = assay: Cytotoxicity against human NCI-H522 cells; type: functional
[17] = target: Protein kinase C alpha type (Homo sapiens, UniProt P17252); assay: Inhibition of [3H]PDBu binding to PKC alpha C1A peptide
HT-29 = assay: Cytotoxicity against human HT-29 cells; type: functional
Raji [18] = assay: Induction of EBA-early antigen production in human Raji cells at 1 uM; type: cell-based; details: human gammaherpesvirus 4
[19] = Cytotoxicity against human Raji cells assessed as viability at 1 uM; type: cell-based; details: read-out: Activity
HCT-116 = assay: Cytotoxicity against human HCT116 cells; type: functional
[20] = target: Protein kinase C theta type (Homo sapiens, UniProt Q04759); assay: Inhibition of [3H]PDBu binding to PKCtheta C1B peptide
SK-OV-3 = assay: Cytotoxicity against human SKOV3 cells; type: functional
A549 = assay: Cytotoxicity against human A549 cells; type: functional
HCC 2998 = assay: Cytotoxicity against human HCC2998 cells; type: functional
MCF7 = assay: Cytotoxicity against human MCF7 cells; type: functional
MKN-74 = assay: Cytotoxicity against human MKN74 cells; type: functional
U-251 = assay: Cytotoxicity against human U251 cells; type: functional
SNB-75 = assay: Cytotoxicity against human SNB75 cells; type: functional
KM12 = assay: Cytotoxicity against human KM12 cells; type: functional

Sequence of Protein kinase C theta type (Q04759 whole entry): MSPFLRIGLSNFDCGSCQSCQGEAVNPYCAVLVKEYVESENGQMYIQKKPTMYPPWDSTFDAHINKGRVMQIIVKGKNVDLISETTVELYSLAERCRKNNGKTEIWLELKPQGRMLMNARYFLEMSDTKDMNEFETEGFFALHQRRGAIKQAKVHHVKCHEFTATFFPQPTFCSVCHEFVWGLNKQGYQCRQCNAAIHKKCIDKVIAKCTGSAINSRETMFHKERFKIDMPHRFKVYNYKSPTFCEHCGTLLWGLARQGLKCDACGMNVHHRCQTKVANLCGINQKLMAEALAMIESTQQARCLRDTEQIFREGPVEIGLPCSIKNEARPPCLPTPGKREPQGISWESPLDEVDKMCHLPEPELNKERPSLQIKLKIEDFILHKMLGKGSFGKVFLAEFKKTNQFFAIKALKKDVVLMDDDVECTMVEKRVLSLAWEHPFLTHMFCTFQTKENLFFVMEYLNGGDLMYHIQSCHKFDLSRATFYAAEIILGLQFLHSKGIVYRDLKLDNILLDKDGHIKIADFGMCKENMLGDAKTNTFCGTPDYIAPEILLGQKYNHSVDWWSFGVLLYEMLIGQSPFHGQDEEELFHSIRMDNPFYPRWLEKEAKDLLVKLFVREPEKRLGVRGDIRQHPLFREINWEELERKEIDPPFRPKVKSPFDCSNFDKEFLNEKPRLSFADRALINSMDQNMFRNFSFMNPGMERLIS
Sequence of Protein kinase C beta type (P05771 whole entry): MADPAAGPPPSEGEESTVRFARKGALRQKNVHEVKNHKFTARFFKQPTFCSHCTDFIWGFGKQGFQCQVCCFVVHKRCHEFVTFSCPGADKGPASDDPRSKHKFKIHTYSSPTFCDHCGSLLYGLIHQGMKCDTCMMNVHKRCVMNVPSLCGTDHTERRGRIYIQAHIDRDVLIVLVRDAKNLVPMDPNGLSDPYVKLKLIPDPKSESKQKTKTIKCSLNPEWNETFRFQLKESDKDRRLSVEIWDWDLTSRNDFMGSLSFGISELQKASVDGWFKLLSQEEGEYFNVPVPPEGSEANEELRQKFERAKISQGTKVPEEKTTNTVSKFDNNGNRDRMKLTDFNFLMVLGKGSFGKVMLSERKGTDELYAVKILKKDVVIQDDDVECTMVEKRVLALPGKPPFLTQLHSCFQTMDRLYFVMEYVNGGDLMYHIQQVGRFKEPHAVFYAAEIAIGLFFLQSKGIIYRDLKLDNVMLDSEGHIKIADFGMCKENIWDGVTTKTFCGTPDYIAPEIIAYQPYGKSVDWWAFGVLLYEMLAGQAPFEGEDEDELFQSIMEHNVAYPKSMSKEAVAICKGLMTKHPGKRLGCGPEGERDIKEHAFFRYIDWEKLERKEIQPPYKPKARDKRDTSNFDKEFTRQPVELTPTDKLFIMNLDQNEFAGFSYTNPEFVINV
T1 sequence (Q05655 whole entry): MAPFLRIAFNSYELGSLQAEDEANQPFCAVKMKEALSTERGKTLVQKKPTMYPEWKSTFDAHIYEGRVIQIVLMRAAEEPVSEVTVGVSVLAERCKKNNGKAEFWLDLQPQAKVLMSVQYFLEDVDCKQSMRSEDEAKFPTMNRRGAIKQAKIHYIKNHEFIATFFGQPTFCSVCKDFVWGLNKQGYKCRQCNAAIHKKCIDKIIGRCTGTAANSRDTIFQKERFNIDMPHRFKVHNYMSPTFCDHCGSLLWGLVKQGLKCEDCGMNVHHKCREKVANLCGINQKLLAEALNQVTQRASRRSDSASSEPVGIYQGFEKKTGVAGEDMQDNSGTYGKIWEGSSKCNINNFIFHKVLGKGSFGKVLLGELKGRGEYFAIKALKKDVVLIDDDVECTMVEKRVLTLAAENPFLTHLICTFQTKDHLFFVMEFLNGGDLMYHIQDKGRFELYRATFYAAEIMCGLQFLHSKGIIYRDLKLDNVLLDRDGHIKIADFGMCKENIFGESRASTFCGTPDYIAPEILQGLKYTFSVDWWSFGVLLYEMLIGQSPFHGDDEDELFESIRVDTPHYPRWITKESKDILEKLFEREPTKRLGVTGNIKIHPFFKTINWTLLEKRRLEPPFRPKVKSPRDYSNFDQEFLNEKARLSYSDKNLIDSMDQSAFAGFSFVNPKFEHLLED
Sequence of Protein kinase C eta type (P24723 whole entry): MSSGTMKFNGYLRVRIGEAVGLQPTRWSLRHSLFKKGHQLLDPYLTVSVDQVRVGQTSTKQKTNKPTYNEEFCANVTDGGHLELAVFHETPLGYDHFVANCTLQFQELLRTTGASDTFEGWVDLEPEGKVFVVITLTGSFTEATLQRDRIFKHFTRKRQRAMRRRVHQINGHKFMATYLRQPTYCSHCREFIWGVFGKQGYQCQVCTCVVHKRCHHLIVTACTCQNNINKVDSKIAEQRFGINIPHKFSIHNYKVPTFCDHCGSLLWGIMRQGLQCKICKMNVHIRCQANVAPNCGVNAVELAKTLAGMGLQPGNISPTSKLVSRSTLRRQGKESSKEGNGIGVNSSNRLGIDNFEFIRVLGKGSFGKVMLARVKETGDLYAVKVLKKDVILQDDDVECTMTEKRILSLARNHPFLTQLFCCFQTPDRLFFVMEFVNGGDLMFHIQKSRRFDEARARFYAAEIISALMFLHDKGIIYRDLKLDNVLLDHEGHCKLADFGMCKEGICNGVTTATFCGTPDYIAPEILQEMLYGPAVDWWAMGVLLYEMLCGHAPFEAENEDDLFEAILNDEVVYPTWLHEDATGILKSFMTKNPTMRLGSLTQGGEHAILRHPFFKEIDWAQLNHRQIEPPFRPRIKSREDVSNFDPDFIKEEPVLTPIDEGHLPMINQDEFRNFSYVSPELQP

Work on `CC1(C)CC[C@@H]2CC(=O)O[C@@H](CO)CC(=O)O[C@@H]3C[C@@H](CCCCc4ccccc4)O[C@@]1(C3)O2` yielded a viability at 1 µM [1] of 60%, a GI50 [2] of 12.6 µM and a Ki [3] of 0.13 µM. The GI50 (OVCAR-5) was 11 µM, the Activity (Raji [4]) was 15.2% and the GI50 (OVCAR-3) was 13.5 µM. It also gave an Activity (Raji [5]) of 9.7%, a GI50 (NCI-H23) of 11.2 µM and a GI50 (MKN-28) of 16.6 µM. The GI50 [6] was 6.76 µM, the GI50 (MKN-45) was 0.813 µM and the GI50 (SF-295) was 7.24 µM. For the same compound, the GI50 (DU-145) was 12 µM, the GI50 (OVCAR-8) was 17.8 µM and the GI50 (HCT-15) was 16.6 µM. It also gave a GI50 (St-4) of 0.891 µM, a GI50 (DMS-273) of 10.5 µM and a GI50 [7] of 13.8 µM. The GI50 (NCI-H460) was 1.48 µM, the GI50 [8] was 0.525 µM and the Ki [9] was 0.037 µM. The GI50 (SF-539) was 10.5 µM, the Ki [10] was 0.08 µM and the GI50 (MDA-MB-231) was 2.14 µM. It also gave an Activity (Raji [11]) of 13.1%, a viability at 0.1 µM [12] of 60% and a Ki [13] of 0.012 µM. The GI50 (PC-3) was 5.5 µM, the GI50 (ACHN) was 10 µM and the GI50 (SF-268) was 12.9 µM. It also gave a Ki [14] of 0.14 µM, a GI50 (DMS-114) of 14.1 µM and a GI50 (MKN-7) of 11.5 µM. The GI50 (NCI-H226) was 11.5 µM, the GI50 (OVCAR-4) was 15.1 µM and the GI50 (SNB-78) was 15.8 µM. For the same compound, the Ki [15] was 0.0098 µM, the GI50 (LOX IMVI) was 6.76 µM and the viability at 0.1 µM [16] was 60%. For the same compound, the GI50 (NCI-H522) was 13.2 µM, the Ki [17] was 0.12 µM and the GI50 (HT-29) was 11.2 µM. For the same compound, the Activity (Raji [18]) was 10.5%, the viability at 1 µM [19] was 60% and the GI50 (HCT-116) was 12.3 µM. The Ki [20] was 0.0081 µM, the GI50 (SK-OV-3) was 17 µM and the GI50 (A549) was 3.24 µM. It also gave a GI50 (HCC 2998) of 2.95 µM, a GI50 (MCF7) of 16.2 µM and a GI50 (MKN-74) of 14.8 µM. It also gave a GI50 (U-251) of 12.3 µM and a GI50 (SNB-75) of 12 µM.

`CC1(C)CC[C@@H]2CC(=O)O[C@@H](CO)CC(=O)O[C@@H]3C[C@@H](CCCCc4cccc(O)c4)O[C@@]1(C3)O2` gave a viability at 1 µM [1] of 60%, a GI50 [2] of 13.8 µM and a GI50 (KM12) of 13.8 µM. The Ki [3] was 0.14 µM, the GI50 (OVCAR-5) was 11.2 µM and the Activity (Raji [4]) was 10.1%. It also gave a GI50 (OVCAR-3) of 16.6 µM, an Activity (Raji [5]) of 9.4% and a GI50 (NCI-H23) of 13.2 µM. For the same compound, the GI50 (MKN-28) was 18.2 µM, the GI50 [6] was 13.5 µM and the GI50 (MKN-45) was 4.68 µM. The GI50 (SF-295) was 8.71 µM, the GI50 (DU-145) was 14.1 µM and the GI50 (OVCAR-8) was 19.5 µM. For the same compound, the GI50 (HCT-15) was 17.4 µM, the GI50 (St-4) was 2.82 µM and the GI50 (DMS-273) was 12.6 µM. For the same compound, the GI50 [7] was 16.2 µM, the GI50 (NCI-H460) was 2.51 µM and the GI50 [8] was 0.468 µM. For the same compound, the Ki [9] was 0.025 µM, the GI50 (SF-539) was 10.7 µM and the Ki [10] was 0.039 µM. For the same compound, the GI50 (MDA-MB-231) was 2.45 µM, the Activity (Raji [11]) was 7.5% and the viability at 0.1 µM [12] was 60%. For the same compound, the Ki [13] was 0.0044 µM, the GI50 (PC-3) was 11 µM and the GI50 (ACHN) was 12 µM. For the same compound, the GI50 (SF-268) was 14.8 µM, the Ki [14] was 0.089 µM and the GI50 (DMS-114) was 16.2 µM. The GI50 (MKN-7) was 16.6 µM, the GI50 (NCI-H226) was 15.5 µM and the GI50 (OVCAR-4) was 17.8 µM. For the same compound, the GI50 (SNB-78) was 19.1 µM, the Ki [15] was 0.0074 µM and the GI50 (LOX IMVI) was 1.82 µM. The viability at 0.1 µM [16] was 60%, the GI50 (NCI-H522) was 13.5 µM and the Ki [17] was 0.063 µM. The GI50 (HT-29) was 17 µM, the Activity (Raji [18]) was 10.4% and the viability at 1 µM [19] was 60%. The GI50 (HCT-116) was 16.2 µM, the Ki [20] was 0.004 µM and the GI50 (SK-OV-3) was 20.4 µM. For the same compound, the GI50 (A549) was 4.79 µM, the GI50 (HCC 2998) was 3.72 µM and the GI50 (MCF7) was 19.1 µM. For the same compound, the GI50 (MKN-74) was 17.4 µM, the GI50 (U-251) was 14.8 µM and the GI50 (SNB-75) was 15.8 µM.

For `CO[C@@H](CC[C@H](C)[C@H]1O[C@@]23C[C@H](OC(=O)C[C@H]([C@@H](C)O)OC(=O)C[C@](O)(O2)[C@H](C)CC3(C)C)[C@@H]1C)c1cc(O)ccc1Br` [APLYSIATOXIN], the viability at 1 µM [1] was 40%, the Ki [3] was 0.012 µM and the Activity (Raji [4]) was 17.8%. The Activity (Raji [5]) was 18.4%, the Ki [9] was 0.0013 µM and the Ki [10] was 0.00063 µM. The Activity (Raji [11]) was 19.4%, the viability at 0.1 µM [12] was 50% and the Ki [13] was 0.00036 µM. For the same compound, the Ki [14] was 0.00045 µM, the Ki [15] was 0.00041 µM and the viability at 0.1 µM [16] was 50%. For the same compound, the Ki [17] was 0.0004 µM, the Activity (Raji [18]) was 20.1% and the viability at 1 µM [19] was 40%. For the same compound, the Ki [20] was 0.00016 µM.
